From US9170257B2 (priority 2012, dated 2015)

Key:
in vivo [1] = assay type: in vivo, Beagle dogs; details: dog, in vivo, iv, 10 mg/kg
Experimental: (§1) The results and analysis for the study are presented for intravenous infusion dosing of a total dose of 10 mg/kg infused over a period of either 2 or 8 hours. Plasma levels of curcumin and its metabolite, THC were measured at timed intervals post-dosing.
For the 2 hour infusion, blood samples were taken at predose and 0.25, 0.5, 1.5 and at 2 hours during infusion and at 15 minutes post-infusion. For the 8 hour infusion, blood samples were taken at predose and 0.25, 0.5, 1.5, […] and at 8 hours during infusion and at 15 minutes post-infusion.
(§2) Bioanalysis was performed on two sets of samples, one set that was treated with phosphoric acid and one set that was not treated with phosphoric acid. […] Values that were below the limit of quantification were assigned a value of 0.
Plasma concentration vs. time profiles were analyzed using (unless otherwise stated) the data from 4 dogs. Plasma profiles for the test articles are presented as the mean data±SE of 4 dogs. Average plasma concentrations were used to perform the PK analysis. Plasma concentration vs. time profiles were analyzed and the PK parameters estimated using WinNonlin Version 5.2.1 employing the intravenous infusion model with first order elimination. Unless stated otherwise, the plasma concentration-time profiles for the test articles are presented as the mean data±SE of 4 dogs.

[2] = rat, rodent studies; cited from earlier work
in vivo [3] = assay type: in vivo, Beagle dogs; details: dog, in vivo
Experimental: as §1, §2
(§3) Fifteen minutes following either the 2 hour or 8 hour infusion, blood, urine and bile samples were taken, prior to the dogs being necropsied and organs removed for the isolation of tissues. Multiple samples of tissue weighing approximately 1 gram were removed and snap frozen in the presence or absence of phosphoric acid (H3PO4). For all tissue samples, the levels of curcumin and THC were determined using a method developed by the Bioanalytical Department at Nucro-Technics. […] Values that were below the limit of quantification were assigned a value of 0. […] Tissue distribution data was analyzed using, unless stated, the data from 4 dogs and are presented as the mean±standard error (S.E.).

[4] = test system: MPTP-induced depletion of DA and DOPAC; details: 80 mg/kg i.p.; cited from earlier work
in vivo [5] = test: in vivo; design: species or system Beagle dogs; details: dog, in vivo; for concentration at 15 min post-infusion / concentration at 15 min / Kp at 2 h / Kp at 8 h: both sexes; for Kp at 2 h / Kp at 8 h: Kp [tissue]/[plasma]
Experimental: The test article will be administered to 8 Beagle dogs by intravenous infusion over two hours (Part A) or eight hours (Part B) as shown in Table 6.
as §3, with “Multiple” for “Fifteen minutes following either the 2 hour or 8 hour infusion, blood, urine and bile samples were taken, prior to the dogs being necropsied and organs removed for the isolation of tissues. Multiple”

COc1cc(/C=C/C(=O)CC(=O)/C=C/c2ccc(O)c(OC)c2)ccc1O [Curcumin, 1,7-bis(4-hydroxy-3-methoxyphenyl)-1,6-heptadiene-3,5-dione, reference compound]
clearance (in vivo [1]; both sexes, Beagle): 343 mL/min/kg
Cmax (in vivo [1]; both sexes, Beagle, Cmax): 15 ng/mL
MRT (in vivo [1]; both sexes, beagle): 36 min
Vd (in vivo [1]; both sexes, beagle): 12.7 L/kg
clearance (in vivo [1]; both sexes, beagle): 343 mL/min/kg
half-life (in vivo [1]; both sexes, beagle): 24 min
AUC (in vivo [1]; both sexes, beagle, AUC): 65 ng·h/mL
AUC (in vivo [1]; both sexes, beagle, AUC (estimated PK parameter)): 485 ng·h/mL
Cmax (in vivo [1]; both sexes, beagle, Cmax): 46 ng/mL
Cmax (in vivo [1]; both sexes, beagle, Cmax (estimated PK parameter)): 233 ng/mL
AUC (in vivo [1]; both, Beagle): 52 ng·h/mL
Ke (in vivo [1]; both, Beagle): 1.6 h⁻¹
Kp values [2]: 0.06-0.25
concentration at 15 min (in vivo [3]; both sexes, Beagle, Plasma level): 0 ng/mL
Plasma level (in vivo [3]; both, beagle, 15 min): 0 ± 0 ng/mL
MPTP-induced depletion of DA and DOPAC [4]: significantly reversed
concentration at 15 min post-infusion (in vivo [5]; Beagle, Tissue analysis, Liver): 28.4 ng/g
concentration at 15 min post-infusion (in vivo [5]; Beagle, Tissue analysis, Spleen): 22.9 ng/g
concentration at 15 min (in vivo [5]; Beagle, Tissue level, Brain Stem): 0.3 ng/g
concentration at 15 min (in vivo [5]; beagle, Average tissue concentration, Bladder): 0.66 ng/g
concentration at 15 min (in vivo [5]; beagle, Average tissue concentration, Brainstem): 0.45 ng/g
concentration at 15 min (in vivo [5]; beagle, Average tissue concentration, Heart): 0.47 ng/g
concentration at 15 min (in vivo [5]; beagle, Average tissue concentration, Intestinal wall): 1.14 ng/g
concentration at 15 min (in vivo [5]; beagle, Average tissue concentration, Striatum): 0.48 ng/g
Kp at 2 h (in vivo [5]; beagle, Brain Stem): 0.0081
Kp at 8 h (in vivo [5]; beagle, Brain Stem): 0.0389
Kp at 2 h (in vivo [5]; beagle, Cortex, Brain): 0.0134
Kp at 8 h (in vivo [5]; beagle, Cortex, Brain): 0.0544
Kp at 2 h (in vivo [5]; beagle, Heart): 0.0087
Kp at 8 h (in vivo [5]; beagle, Heart): 0.0503
Kp at 2 h (in vivo [5]; beagle, Hippocampus): 0.0016
Kp at 8 h (in vivo [5]; beagle, Hippocampus): 0.0007
Kp at 2 h (in vivo [5]; beagle, Intestinal Wall): 0.0206
Kp at 8 h (in vivo [5]; beagle, Intestinal Wall): 0.0564
Kp at 2 h (in vivo [5]; beagle, Kidney): 0.0161
Kp at 8 h (in vivo [5]; beagle, Kidney): 0.186
Kp at 2 h (in vivo [5]; beagle, Liver): 0.0329
Kp at 8 h (in vivo [5]; beagle, Liver): 1.9
Kp at 2 h (in vivo [5]; beagle, Lungs): 0.413
Kp at 8 h (in vivo [5]; beagle, Lungs): 16.8
Kp at 2 h (in vivo [5]; beagle, Muscle): 0.0034
Kp at 8 h (in vivo [5]; beagle, Muscle): 0.053
Kp at 2 h (in vivo [5]; beagle, Pancreas): 0.0166
Kp at 8 h (in vivo [5]; beagle, Pancreas): 0.191
Kp at 2 h (in vivo [5]; beagle, Striatum): 0.0087
Kp at 8 h (in vivo [5]; beagle, Striatum): 0.0329
Kp at 2 h (in vivo [5]; beagle, Urinary Bladder): 0.0125
Kp at 8 h (in vivo [5]; beagle, Urinary Bladder): 0.152
concentration at 15 min (in vivo [5]; beagle, Tissue analysis, Brainstem): 0.45 ng/g
concentration at 15 min (in vivo [5]; beagle, Tissue analysis, Cortex): 0.73 ng/g
concentration at 15 min (in vivo [5]; beagle, Tissue level, Cortex, Brain): 0.52 ng/g
concentration at 15 min (in vivo [5]; beagle, Tissue level, Heart): 0.49 ng/g
Average tissue concentration, Bladder (in vivo [5]; both, beagle, 15 min): 0.87 ng/gm
Average tissue concentration, Brainstem (in vivo [5]; both, beagle, 15 min): 0.57 ng/gm
Average tissue concentration, Cortex (in vivo [5]; both, beagle, 15 min): 0.80 ng/gm
Average tissue concentration, Heart (in vivo [5]; both, beagle, 15 min): 0.74 ng/gm
Average tissue concentration, Striatum (in vivo [5]; both, beagle, 15 min): 0.49 ng/gm
Tissue analysis, Brainstem (in vivo [5]; both, beagle, 15 min): 0.32
Tissue analysis, Cortex (in vivo [5]; both, beagle, 15 min): 0.52
Tissue level, Brain Stem (in vivo [5]; both, beagle, 15 min): 0.41 ng/g
Tissue level, Cortex, Brain (in vivo [5]; both, beagle, 15 min): 0.72 ng/g
Tissue level, Heart (in vivo [5]; both, beagle, 15 min): 0.67 ng/g
Kp [tissue]/[plasma], Liver (in vivo [5]; both, beagle, 8 h): 1.9047
Kp [tissue]/[plasma], Lungs (in vivo [5]; both, beagle, 8 h): 16.8289
